In PMC12621019, “Restructuring Antiviral Quinazolinone Frameworks to Derive and Optimize Inhibitors of Chikungunya Virus” (ACS Medicinal Chemistry Letters, 2025):
Converted amounts (≈) assume the structure as drawn.

Key:
[1] = Mouse plasma stability; conditions: male, CD-1, mouse
[2] = physchem; conditions: pH 7.4
[3] = system: CHIKV (strain 181/25mKate); experiment: microbe, parasite or virus in culture; assay type: cell-based; conditions: Chikungunya virus, NHDF; for log reduction at 10 µM: 72 h, read-out: titer redn, log
[4] = Kinetic solubility determination; conditions: for solubility kinetic at 24 h: pH 7.4, aqueous buffer, kinetic from dmso stock
[5] = Plasma protein binding (equilibrium dialysis); conditions: male, CD-1, mouse
[6] = Cytotoxicity assay (CellTiter Glo) in NHDF cells; conditions: human, CC50, NHDF cells, maximum 40 μM
[7] = Liver microsomal stability; conditions: CD-1, mouse, microsomes
[8] = Cytotoxicity in Vero E6 cells (live cell count, high-content imaging); conditions: African green monkey
[9] = system: NHDF cells; experiment: Cytotoxicity assay (CellTiter Glo) in NHDF cells; conditions: NHDF cells, 72 h; maximum 40 μM

`CC(C)N1CCN(c2cc3nc(C4CCCCN4)n(-c4ccc(Cl)cc4)c(=O)c3cc2Cl)CC1` (racemic) [rac-1x] showed a half-life [1] of over 4.82 h, a logD [2] of 2.3 and a log reduction at 10 µM [3] of about 4. The solubility kinetic at 24 h [4] was 34.6 µM (≈ 17.3 µg/mL), the fraction unbound at 4 h, 2 μM [5] was 0.033 and the CC50 at 72 h [6] was 20.9 µM. The half-life [7] was over 2.42 h.

With `COc1c(F)cc(-n2c([C@H]3CCCCN3)nc3cc(N4CCN(C(C)C)CC4)c(Cl)cc3c2=O)cc1F` [(R)-1h] the half-life [1] was over 4 h, the CC50 at 20 h [8] was over 20 µM and the log reduction at 10 µM [3] was 4.1. The EC50 ([3]; read-out: EC50 (titer reduction assay, dose response)) was 0.86 µM, the “boost in aqueous solubility compared to rac-1x” value ([4]; PBS buffer, pH 7.4) was 5 fold and the solubility kinetic at 24 h [4] was 183 µM (≈ 97.4 µg/mL). The fraction unbound at 4 h, 2 μM [5] was 0.232, the CC50 [9] was 18.6 µM and the CC50 at 72 h [6] was about 19 µM. For the same molecule, the half-life [7] was over 2.42 h.
